{"source": "patent US20230181541A1", "about": "“COMPOSITIONS AND METHODS FOR TREATING OBSESSIVE-COMPULSIVE DISORDER” (Biohaven Therapeutics Ltd., priority 2020, published 2023)", "system": "OCD patients with inadequate response to standard of care treatment", "settings": "for YBOCS Compulsions Subscale Change from Baseline, LS Mean / YBOCS Compulsions Subscale Change from Baseline, Troriluzole vs Placebo Difference Estimate / YBOCS Obsessions Subscale Change from Baseline, LS Mean / YBOCS Obsessions Subscale Change from Baseline, Troriluzole vs Placebo Difference Estimate / YBOCS Total Change from Baseline, Troriluzole vs Placebo Difference Estimate / YBOCS Total Change from Baseline, LS Mean / YBOCS Total Score Change from Baseline, LS Mean: MITT data set, MMRM; for YBOCS Total Score Change from Baseline, LS Mean: only subjects <= median baseline YBOCS total = 26, not validated", "experimental": "In some embodiments of the invention, the individual treated according to the claimed method is assessed using the Yale Brown Obsessive Compulsive Scale (“Y-BOCS”). See Goodman et al., Arch. Gen. Psychiatry, 1989, 46, 1006-1011. According to this system, an individual is scored using a symptom checklist by asking the individual about specific obsessions and compulsions. Such symptoms are broadly categorized as aggressive obsessions, contamination obsessions, sexual obsessions, hoarding/saving obsessions, religious obsessions, obsession with need for symmetry or exactness, miscellaneous obsessions, somatic obsessions, cleaning/washing compulsions, checking compulsions, repeating rituals, counting compulsions, ordering/arranging compulsions, and miscellaneous compulsions. Each of these categories is further divided by subcategory of more specific symptoms. Individuals are scored according to the answers provided. Scores range from 0-7 for subclinical, 8-15 for mild, 16-23 for moderate, 24-31 for severe, and 32-40 for extreme severity.\nSubjects receive a dose of 140 mg QD for the first four (4) weeks, and the dose is then increased to 200 mg QD for the duration of the study. Down titration is only allowed to address tolerability issues**. Eligible subjects include those who perceived benefit in earlier phases or for whom the Principal Investigator (PI) believes extended treatment with BHV-4157 would offer an acceptable risk-benefit profile***. Subjects start the Extension phase on the dose that was taken at the end of the Randomization phase. Subjects receiving placebo in the randomization phase are blindly switched to a 140 mg dose QD for the first 4 week, and the dose is then increased to 200 mg QD (at the Week 4 visits). Down titration is only allowed to address tolerability issues. All visits after Week 4 are open-label****.\nSubjects who are stable on Standard of Care (SOC) medication and having an inadequate response to SOC are randomized to additionally receive placebo (QD) or troriluzole for 12 weeks (200 mg QD, after four weeks at 140 mg QD). Subjects completing the Randomization Phase are offered approximately 48 weeks of open-label treatment. The study is conducted from December 2017 to June 2020 with 242 subjects randomized at over 56 sites. The full study details are available online at https://clinicaltrials.gov/ct2/show/study/NCT03299166?term=biohaven&cond=Obsessive-Compulsive+Disorder&draw=2&rank=1.\nThe study involves subjects with a primary diagnosis of OCD as per Diagnostic and Statistical Manual of Mental Disorders, Fifth Edition, as confirmed by the MINI at screening.\nDuration of the subject's illness must be equal to or greater than 1 year.\nThe Clinical Global Impression Score (CGI-S) must be equal to or greater than 4 at screening and baseline.\nSubjects are excluded with a history of more than two (2) previous failed treatment trials of SSRIs, clomipramine, venlafaxine, or desvenlafaxine, (not including the current SSRI trial) given for an adequate duration at an adequate dose as defined by the MGH-TRQ-OCD.\nSubjects are excluded if they display acute suicidality or suicide attempt or self-injurious behavior in the last 12 months.\nSubjects are excluded if they have a Brown Assessment of Beliefs (BABS) score of greater than 17 at screening and baseline.\nUse of a stimulant, neuroleptic (antipsychotic), mood stabilizer and glutamate agent (e.g., topiramate, lamotrigine, N-acetylcysteine, ketamine, memantine, sodium valproate) is prohibited within the 4 weeks prior to screening and during the study.\nCurrent daily anxiolytic or benzodiazepine use is prohibited.", "key": {"[1]": {"settings": "Week 4, only subjects > baseline YBOCS = 26 (median)"}, "[2]": {"settings": "Week 8, only subjects > baseline YBOCS = 26 (median)"}, "[3]": {"settings": "Week 12, only subjects > baseline YBOCS = 26 (median)"}}, "note": "Where two headings read alike, the source gives them in different places."}
{"smiles": "CN(CC(=O)Nc1nc2ccc(OC(F)(F)F)cc2s1)C(=O)CNC(=O)CN", "note": "[Troriluzole]", "values": [{"measurement": "Y-BOCS outcome versus placebo (in words)", "setting": "200 mg once daily as adjunctive therapy, all study timepoints (weeks 4 to 12)", "value": "consistent numerical improvement over placebo"}, {"measurement": "YBOCS Compulsions Subscale Change from Baseline, LS Mean", "setting": "Week 4", "value": "−1.72"}, {"measurement": "YBOCS Compulsions Subscale Change from Baseline, Troriluzole vs Placebo Difference Estimate", "setting": "Week 4", "value": "−0.44"}, {"measurement": "YBOCS Obsessions Subscale Change from Baseline, LS Mean", "setting": "Week 4", "value": "−1.67"}, {"measurement": "YBOCS Obsessions Subscale Change from Baseline, Troriluzole vs Placebo Difference Estimate", "setting": "Week 4", "value": "−0.02"}, {"measurement": "YBOCS Total Change from Baseline, Troriluzole vs Placebo Difference Estimate", "setting": "Week 4", "value": "−0.5"}, {"measurement": "YBOCS Total Change from Baseline, LS Mean", "setting": "Week 4, 140 mg QD first 4 weeks then 200 mg QD, added to SOC", "value": "−3.4", "unit": "points"}, {"measurement": "YBOCS Total Score Change from Baseline, LS Mean", "setting": "Week 4", "value": "−2.8"}, {"measurement": "YBOCS Total Change from Baseline, LS Mean", "setting": "[1]", "value": "−4.1", "unit": "points"}, {"measurement": "YBOCS Total Change from Baseline, Troriluzole vs Placebo Difference Estimate", "setting": "[1]", "value": "−0.6"}, {"measurement": "YBOCS Compulsions Subscale Change from Baseline, LS Mean", "setting": "Week 8", "value": "−2.61"}, {"measurement": "YBOCS Compulsions Subscale Change from Baseline, Troriluzole vs Placebo Difference Estimate", "setting": "Week 8", "value": "−1.20"}, {"measurement": "YBOCS Obsessions Subscale Change from Baseline, LS Mean", "setting": "Week 8", "value": "−2.50"}, {"measurement": "YBOCS Obsessions Subscale Change from Baseline, Troriluzole vs Placebo Difference Estimate", "setting": "Week 8", "value": "−0.36"}, {"measurement": "YBOCS Total Change from Baseline, Troriluzole vs Placebo Difference Estimate", "setting": "Week 8", "value": "−1.5"}, {"measurement": "YBOCS Total Change from Baseline, LS Mean", "setting": "Week 8, 140 mg QD first 4 weeks then 200 mg QD, added to SOC", "value": "−5.1", "unit": "points"}, {"measurement": "YBOCS Total Score Change from Baseline, LS Mean", "setting": "Week 8", "value": "−4.4"}, {"measurement": "YBOCS Total Change from Baseline, LS Mean", "setting": "[2]", "value": "−6.0", "unit": "points"}, {"measurement": "YBOCS Total Change from Baseline, Troriluzole vs Placebo Difference Estimate", "setting": "[2]", "value": "−2.9"}, {"measurement": "YBOCS Compulsions Subscale Change from Baseline, LS Mean", "setting": "Week 12", "value": "−3.01"}, {"measurement": "YBOCS Compulsions Subscale Change from Baseline, Troriluzole vs Placebo Difference Estimate", "setting": "Week 12", "value": "−0.64"}, {"measurement": "YBOCS Obsessions Subscale Change from Baseline, LS Mean", "setting": "Week 12", "value": "−2.91"}, {"measurement": "YBOCS Obsessions Subscale Change from Baseline, Troriluzole vs Placebo Difference Estimate", "setting": "Week 12", "value": "−0.36"}, {"measurement": "YBOCS Total Change from Baseline, Troriluzole vs Placebo Difference Estimate", "setting": "Week 12", "value": "−1.0"}, {"measurement": "YBOCS Total Change from Baseline, LS Mean", "setting": "Week 12, 140 mg QD first 4 weeks then 200 mg QD, added to SOC", "value": "−5.9", "unit": "points"}, {"measurement": "YBOCS Total Score Change from Baseline, LS Mean", "setting": "Week 12", "value": "−5.0"}, {"measurement": "YBOCS Total Change from Baseline, LS Mean", "setting": "[3]", "value": "−7.0", "unit": "points"}, {"measurement": "YBOCS Total Change from Baseline, Troriluzole vs Placebo Difference Estimate", "setting": "[3]", "value": "−2.4"}, {"measurement": "safety profile", "setting": "in vivo", "value": "safe and well tolerated"}]}
